Key:
Type in all cases: in vivo
Spodoptera littoralis = Spodoptera littoralis (Egyptian cotton leafworm) cotton leaf disc spray test; settings: foliar, 72 h, 200 ppm spray on cotton leaf discs, 5 L1 larvae, mortality, feeding behavior, growth regulation 3 days after treatment
Description: Spodoptera littoralis (Egyptian Cotton Leafworm) Cotton leaf discs were placed on agar in a 24-well microtiter plate and sprayed with test solutions at an application rate of 200 ppm. After drying, the leaf discs were infested with 5 L1 larvae. The samples were checked for mortality, feeding behavior, and growth regulation 3 days after treatment (DAT).

Heliothis virescens = Heliothis virescens (tobacco budworm) egg test on artificial diet; settings: 96 h, 200 ppm (concentration in well 18 ppm), eggs 0-24 h old on artificial diet, egg mortality, larval mortality, growth regulation after 4 days
Description: Heliothis virescens (Tobacco Budworm):
Eggs (0-24 h old) were placed in 24-well microtiter plate on artificial diet and treated with test solutions at an application rate of 200 ppm (concentration in well 18 ppm) by pipetting. After an incubation period of 4 days, samples were checked for egg mortality, larval mortality, and growth regulation. The following compound gave at least 80% control of Heliothis virescens: A1, A2, A03, A05, A06, A07, A08, A09, A10, A11, A12, A13, A14, A15, A16, A17, A18, A19, A20, A21, A22, A25, A26, A27, A31, A32, A34, A37, A39, A40, A42, A44, A45, A46, A47, A48, A49, A50, A51, A52, A53, B1**.

Plutella xylostella = Plutella xylostella (diamond back moth) artificial diet MTP test; settings: 144 h, 200 ppm (concentration in well 18 ppm), L2 larvae, larval mortality and growth regulation after 6 days
Description: (§1) Plutella xylostella (Diamond Back Moth): 24-well microtiter plate (MTP) with artificial diet was treated with test solutions at an application rate of 200 ppm (concentration in well 18 ppm) by pipetting. After drying, the MTPs were infested with L2 larvae (7-12 per well). After an incubation period of 6 days, samples were checked for larval mortality and growth regulation.

Diabrotica balteata = Diabrotica balteata (corn root worm) artificial diet MTP test; settings: 120 h, 200 ppm (concentration in well 18 ppm), L2 larvae, larval mortality and growth regulation after 5 days
Description: as §1, with “Diabrotica balteata (Corn Root Worm): A” for “Plutella xylostella (Diamond Back Moth):”, “(6-10” for “(7-12”, “5” for “6”

Tetranychus urticae = Tetranychus urticae (two-spotted spider mite) bean leaf disc spray test; settings: foliar, 192 h, 200 ppm spray on bean leaf discs, mite populations of mixed ages, egg, larval and adult mortality 8 days later
Description: Tetranychus urticae (Two-Spotted Spider Mite): Bean leaf discs on agar in 24-well microtiter plates were sprayed with test solutions at an application rate of 200 ppm. After drying, the leaf discs are infested with mite populations of mixed ages. 8 days later, discs are checked for egg mortality, larval mortality, and adult mortality.

Measured: pest or weed control at 200 ppm

CC(C)C(=O)NCc1ccc(C2=COC(c3cc(Cl)cc(Cl)c3)(C(F)(F)F)C2)cc1Cl (stereo not drawn) [Compound A46, N-[[2-chloro-4-[2-(3,5-dichlorophenyl)-2-(trifluoromethyl)-3H-furan-4-yl]phenyl]methyl]-2-methyl-propanamide]
≥ 80%: all assays above

O=C(CC(F)(F)F)NCc1ccc(C2=COC(c3cc(Cl)cc(Cl)c3)(C(F)(F)F)C2)cc1Cl (stereo not drawn) [Compound A48, N-[[2-chloro-4-[2-(3,5-dichlorophenyl)-2-(trifluoromethyl)-3H-furan-4-yl]phenyl]methyl]-3,3,3-trifluoro-propanamide]
≥ 80%: all assays above

CCC(=O)NCc1ccc(C2=COC(c3cc(Cl)cc(Cl)c3)(C(F)(F)F)C2)cc1Cl (stereo not drawn) [Compound A05, N-[[2-chloro-4-[2-(3,5-dichlorophenyl)-2-(trifluoromethyl)-3H-furan-4-yl]phenyl]methyl]propanamide]
≥ 80%: all assays above
